Reference: patent publication US20240391862A1, “(1,4,5-TRISUBSTITUTED-1H-PYRAZOL-3-YL)OXY-2-ALKOXY ALKYL ACIDS AND THEIR DERIVATIVES, THEIR SALTS AND THEIR USE AS HERBICIDAL AGENTS” (Bayer AKtiengesellschaft, priority 2021, published 2024)

Tests used:
DIGSA = test: Post-emergence herbicidal effect, greenhouse pot test; format: in vivo, Digitaria sanguinalis; settings: Digitaria sanguinalis, 504 h, visual rating about 3 weeks after treatment, read-out: Post-emergence effect against DIGSA
In short: (§1)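 Weeds sown in sandy loam, greenhouse-grown 2–3 weeks, then sprayed at one-leaf stage with WP or EC formulations in water plus 0.5% additive at 600 l/ha. Rates 20 to 320 g/ha. Visual rating after about 3 weeks versus untreated controls (100% = plants dead, 0% = like control).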

MATIN = test: as above; format: in vivo, Tripleurospermum inodorum; settings: Tripleurospermum inodorum, 504 h, read-out: Post-emergence effect against MATIN in %
In short: as §1

POLCO = test: as above; format: in vivo, Fallopia convolvulus; settings: Fallopia convolvulus, 504 h, 320 g/ha, read-out: Post-emergence effect against POLCO in %
In short: as §1

SETVI = test: as above; format: in vivo, Setaria viridis; settings: Setaria viridis, 504 h, read-out: Post-emergence effect against SETVI in %
In short: as §1

ABUTH = test: as above; format: in vivo, Abutilon theophrasti; settings: Abutilon theophrasti, 504 h, visual rating about 3 weeks after treatment, read-out: Post-emergence effect against ABUTH
In short: as §1

AVEFA = test: as above; format: in vivo, Avena fatua; settings: Avena fatua, 504 h, 320 g/ha, visual rating about 3 weeks after treatment, read-out: Post-emergence effect against AVEFA
In short: as §1

AMARE = test: as above; format: in vivo, Amaranthus retroflexus; settings: Amaranthus retroflexus, 504 h, visual rating about 3 weeks after treatment, read-out: Post-emergence effect against AMARE
In short: as §1

ECHCG = test: as above; format: in vivo, Echinochloa crus-galli; settings: Echinochloa crus-galli, 504 h, read-out: Post-emergence effect against ECHCG in %
In short: as §1

TRZAS = test: Post-emergence herbicidal effect and crop plant compatibility, greenhouse pot test; format: in vivo, Triticum aestivum; settings: Triticum aestivum, 504 h, 20 g/ha, one-leaf stage, rated visually after about 3 weeks vs untreated controls, read-out: Post-emergence effect at 20 g/ha against TRZAS in %
Source text: • ALOMY: Alopecurus myosuroides SETVI: Setaria viridis • AVEFA: Avena fatua POLCO: Fallopia convolvulus • AMARE: Amaranthus retroflexus ECHCG: Echinochloa crus-galli • LOLRJ: Lolium rigidum STEME: Stellaria media • VERPE: Veronica persica MATIN: Tripleurospermum inodorum • DIGSA: Digitaria sanguinalis ABUTH: Abutylon threophrasti • TRZAS: Triticum aestivum VIOTR: Viola tricolor • BRSNW: Brassica napus ZEAMX: Zea mays • PHBPU: Ipomoea purpurea GLXMA: Glycine max • ORYSA: Oryza sativa HORMU: Hordeum murinum
Seeds of monocotyledonous and dicotyledonous weeds and crop plants are placed in sandy loam in plastic or organic planting pots, covered with soil and cultivated in a greenhouse under controlled growth conditions. 2 to 3 weeks after sowing, the trial plants are treated at the one-leaf stage. The compounds of the invention, formulated in the form of wettable powders (WP) or as emulsion concentrates (EC), are then sprayed onto the green parts of the plants as aqueous suspension or emulsion with addition of 0.5% additive at a water application rate of 600 l/ha (converted). After the test plants have been kept in the greenhouse under optimum growth conditions for about 3 weeks, the activity of the preparations is rated visually in comparison to untreated controls. For example, 100% activity=the plants have died, 0% activity=like control plants.
Tables 20a to 38c below show the effects/crop compatibilities of selected compounds of the general formula (I) on various harmful plants at an application rate corresponding to 20 to 320 g/ha, which were obtained by the trial procedure specified above.

VIOTR = test: Post-emergence herbicidal effect, greenhouse pot test; format: in vivo, Viola tricolor; settings: Viola tricolor, 504 h, read-out: Post-emergence effect against VIOTR in %
In short: as §1

ALOMY = test: as above; format: in vivo, Alopecurus myosuroides; settings: Alopecurus myosuroides, 504 h, 320 g/ha, visual rating about 3 weeks after treatment, read-out: Post-emergence effect against ALOMY
In short: as §1

VERPE = test: as above; format: in vivo, Veronica persica; settings: Veronica persica, 504 h, read-out: Post-emergence effect against VERPE in %
In short: as §1

PHBPU = test: as above; format: in vivo, Ipomoea purpurea; settings: Ipomoea purpurea, 504 h, read-out: Post-emergence effect against PHBPU in %
In short: as §1

ZEAMX = test: Post-emergence herbicidal effect and crop plant compatibility, greenhouse pot test; format: in vivo, Zea mays; settings: Zea mays, 504 h, one-leaf stage, rated visually after about 3 weeks vs untreated controls; for plant injury at 20 g/ha: read-out: Post-emergence effect at 20 g/ha against ZEAMX in %; for plant injury at 80 g/ha: read-out: Post-emergence effect at 80 g/ha against ZEAMX in %
In short: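 Visual % activity scored roughly 3 weeks post-spray against untreated plants, where 100% means death and 0% equals control. Plants were treated at the one-leaf stage, 2 to 3 weeks after sowing in sandy loam, at 20 to 320 g/ha.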

Row | SMILES | pest or weed control at 320 g/ha (DIGSA) [%] | pest or weed control at 320 g/ha (MATIN) [%] | pest or weed control at 320 g/ha (SETVI) [%] | pest or weed control at 320 g/ha (AVEFA) [%] | pest or weed control at 320 g/ha (AMARE) [%] | pest or weed control at 320 g/ha (ECHCG) [%] | percent crop injury (phytotoxicity) to wheat, post-emergence at 20 g/ha (TRZAS) [%] | pest or weed control at 320 g/ha (VIOTR) [%] | pest or weed control at 320 g/ha (ALOMY) [%] | pest or weed control at 320 g/ha (VERPE) [%] | pest or weed control at 320 g/ha (PHBPU) [%] | plant injury at 20 g/ha (ZEAMX) [%] | plant injury at 80 g/ha (ZEAMX) [%] | other results
1 | COC(=O)C(OC)Oc1nn(-c2cccc(Cl)c2F)c(-c2cncc(F)c2)c1Cl (centres unmarked) [Example I-16, Methyl {[4-chloro-1-(3-chloro-2-fluorophenyl)-5-(5-fluoropyridin-3-yl)-1H-pyrazol-3-yl]oxy}(methoxy)acetate] | 90 | 90 | 80 | 90 | 80 | 90 | 10 | 90 | 90 | 80 | 90 |  |  | pest or weed control at 80 g/ha (DIGSA; 80 g/ha): 80%; pest or weed control at 80 g/ha (MATIN; 80 g/ha): 80%; pest or weed control at 320 g/ha (POLCO): 80%; pest or weed control at 80 g/ha (SETVI; 80 g/ha): 80%; pest or weed control at 80 g/ha (ABUTH; 80 g/ha): 90%; pest or weed control at 320 g/ha (ABUTH; 320 g/ha): 90%; pest or weed control at 80 g/ha (AMARE; 80 g/ha): 80%; pest or weed control at 80 g/ha (ECHCG; 80 g/ha): 90%; pest or weed control at 20 g/ha (VIOTR; 20 g/ha): 80%; pest or weed control at 80 g/ha (VIOTR; 80 g/ha): 80%; pest or weed control at 20 g/ha (PHBPU; 20 g/ha): 80%; pest or weed control at 80 g/ha (PHBPU; 80 g/ha): 90%
2 | CCOC(=O)C(OC)Oc1nn(-c2ccccc2F)c(-c2ccc(F)nc2)c1Br (centres unmarked) [Example I-22] | 80 | 90 | 90 | 80 | 90 | 90 | 20 | 80 | 90 | 90 | 90 | 20 | 20 | pest or weed control at 80 g/ha (VERPE; 80 g/ha): 90%
3 | COC(Oc1nn(-c2cnccn2)c(-c2ccc(F)nc2)c1Br)C(=O)O (centres unmarked) [Example I-43] |  |  |  |  |  |  | 0 |  |  |  |  | 0 | 0 | 
4 | COC(Oc1nn(-c2ncccc2F)c(-c2ccc(F)nc2)c1Cl)C(=O)O (centres unmarked) [Example I-44] |  |  |  |  |  |  | 0 |  |  |  |  | 0 | 0 | plant injury at 320 g/ha (ZEAMX; 320 g/ha, read-out: Post-emergence effect at 320 g/ha against ZEAMX in %): 0%
